Experiments:
[1] = test system: Age-Impaired (AI) Long-Evans rats; assay: Morris Water Maze (MWM) retention trial, spatial memory retention; type: in vivo, rat
Method: FIG. 2 depicts the effects of administering levetiracetam on the spatial memory retention of six aged-impaired rats (AI) in a Morris Water Maze (MWM) test. Three treatment conditions were employed: vehicle control, levetiracetam (5 mg/kg/day) and levetiracetam (10 mg/kg/day). The AI rats were trained for two consecutive days, with a one-time treatment prior to the training trials per day. 24 hours later, the AI rats were tested. The time the AI rats, 24 hours after treatment with the different conditions and two days of training, spent swimming in the target quadrant or the target annulus in a memory retention trial is used as a measure of spatial memory retention. The target quadrant refers to the quadrant of the maze (which is a circular pool) where the escape platform is placed during the training trials. The target annulus refers to the exact location of the escape platform during the training trials.
The MWM apparatus consists of a large, circular pool (diameter 1.83 m; height, 0.58 m) filled with water (27° C.) that is made opaque through the addition of non-toxic pigment or some other substance. In the typical "hidden platform" version of the test, rats are trained to find a camouflaged white escape platform (height, 34.5 cm) that is positioned in the center of one quadrant of the maze about 1.0 cm below the water surface. This platform can be retracted to the bottom of the tank or raised to its normal position from outside the maze during behavioral testing. The location of the platform remains constant from trial to trial. Because there are no local cues that mark the position of the platform, the rat's ability to locate it efficiently from any starting position at the perimeter of the pool depends on using information surrounding the maze. The maze is surrounded by black curtains to which white patterns are affixed to provide a configuration of spatial cues. A second platform (height 37.5 cm), with its surface painted black is elevated 2 cm above the water surface during cue training to control for factors unrelated to cognition. The behavior of a rat in the pool is recorded by a camera that is suspended 2.5 m above the center of the pool. The camera is connected to a video tracking system (HVS Image Advanced Tracker VP200) and a PC computer running HVS software developed by Richard Baker of HVS Image, Hampton, UK.
The MWM protocol is optimized for sensitivity to the effects of aging on cognition and for measures of reliable individual differences within the aged population of out-bred Long-Evans rats (Gallagher et al. Behav. Neurosci. 107:618-626, (1993)). […] At the completion of the protocol using the hidden platform, rats are assessed for cue learning using the visible platform. […]

DG/CA3 of aMCI subjects = assay: fMRI activity during lure stimuli correctly identified as similar, DG/CA3; type: in vivo, human; settings: 125 mg twice a day for two weeks
Method: FIG. 8B depicts the average activity in the left CA3 of aMCI subjects with placebo treatment or levetiracetam treatment (125 mg twice a day for two weeks) during the presentation of lure stimuli that the subject correctly identified as "similar."
A within-subjects trial of 8 weeks duration, involving 17 amnestic MCI (aMCI) subjects and 17 age-matched controls with a low dose treatment of levetiracetam is conducted. During the course of the study, each aMCI subject receives both drug and placebo treatments separately in two periods of two weeks each, with the order of treatments among different aMCI subjects counterbalanced (see FIG. 7). Age-matched control subjects treated with placebo serve as a further control. Cognitive testing and fMRI imaging data are obtained from the subjects after each two week period of drug/placebo treatment.
Imaging data are obtained through high-resolution methods developed in the Stark laboratory. Data are collected on a Phillips 3 Tesla scanner (Eindhoven, The Netherlands) equipped with an 8-channel SENSE (Sensitivity Encoding) head coil, located at the F.M. Kirby Research Center for Functional Brain Imaging at the Kennedy Krieger Institute (Baltimore, MD). […]
Group data are analyzed using a two-way Analysis of Variance (ANOVA) with trial types and group as fixed factors, and subject as a random factor nested within group. […]

SMILES: CC[C@@H](C(N)=O)N1CCCC1=O [levetiracetam, (2S)-2-(2-oxopyrrolidin-1-yl) butanamide]
- performance (time in target quadrant) compared to vehicle ([1]; 5 mg/kg/day i.p., retention trial 24 h after training): did not significantly improve
- time spent in the target annulus ([1]; 10 mg/kg/day i.p., retention trial): effectivness of the 10 mg/kg/day levetiracetam treatment was also seen
- memory as compared to vehicle-treated controls (time in target quadrant) ([1]; 10 mg/kg/day i.p., retention trial 24 h after training): significantly improved memory
- time spent in the target quadrant, percentage of total swimming time ([1]; 10 mg/kg/day i.p., retention trial 24 h after two training days): approximately 35%
- DG/CA3 activity compared with control subjects treated with placebo (DG/CA3 of aMCI subjects): statistically indistinguishable
- DG/CA3 activity during successful memory judgments, vs placebo treatment (DG/CA3 of aMCI subjects; p = 0.037): reduces DG/CA3 hyper-activity

Source: US20230033195A1, “METHODS AND COMPOSITIONS FOR IMPROVING COGNITIVE FUNCTION” (THE JOHNS HOPKINS UNIVERSITY, priority 2011, published 2023)
